Laboratory results: the NIST ThermoML archive (doi:10.1016/j.jct.2016.09.027)

Experiment: mn = molality of the nth substance listed, in mol/kg
Conditions: 100 kPa, Liquid; for speed of sound: Frequency=3 MHz, Sing-around technique in a fixed-path interferometer; for mass density: Vibrating tube method

C[C@H]1COc2c(N3CCN(C)CC3)c(F)cc3c(=O)c(C(=O)O)cn1c23 [levofloxacin] + O
Conditions | mass density, 288.15 K [kg/m3] | mass density, 293.15 K [kg/m3] | mass density, 298.15 K [kg/m3] | mass density, 303.15 K [kg/m3] | mass density, 308.15 K [kg/m3] | speed of sound, 288.15 K [m/s] | speed of sound, 293.15 K [m/s] | speed of sound, 298.15 K [m/s] | speed of sound, 303.15 K [m/s] | speed of sound, 308.15 K [m/s]
m1 = 0.005 | 1001.5 | 1000.61 | 999.444 | 998.037 | 996.415 | 1467.4 | 1483.2 | 1497.3 | 1509.7 | 1520.3
m1 = 0.01 | 1002.04 | 1001.14 | 999.956 | 998.556 | 996.926 | 1468.3 | 1484 | 1498.1 | 1510.4 | 1521
m1 = 0.03 | 1004.52 | 1003.59 | 1002.39 | 1000.96 | 999.305 | 1471.4 | 1487.2 | 1500.9 | 1513 | 1523.4
